Experimental data published in patent publication US12710369B2, “Optical real-time biosensor” (CZ Biohub SF, LLC, priority 2018, dated 2026).

Columns and labels:
serotonin aptamers [1] = experiment: real-time measurement with one-color optical biosensor system, fiber-tethered signal-off serotonin aptamer switch; format: binding; details: specificity of 5-HT signal-off aptamer optical probe towards other molecules
Excerpt: In some embodiments, the optical biosensor system was used to measure other molecules, such as dopamine (DA) and serotonin ([…]). The aptamers for DA and 5-TH are converted into aptamer-switches. (See, e.g., Nakatsuka et al., Aptamer-field-effect Transistors Overcome Debye Length Limitations for Small-molecule Sensing, Science 362: 319-324 (2018).) Higher sensitivity and better photostability were achieved through improvements in detector alignment.
To evaluate the performance of the optical biosensor system in a biological matrix, spiked concentration of 5-HT and DA in an artificial cerebrospinal fluid (aCSF) or a cerebrospinal fluid (CSF), and in brain slices mediums were measured using a one-color optical biosensor system.
The optical biosensor system 2400 includes a laser source 2410, an optical beam splitter 2420, and a detector 2430. The optical biosensor system 2400 may include an optional battery for providing power to the laser source 2410 and the detector 2430. […]
Molecular switches (not shown) are attached to the second end 2466 of the optical waveguide 2462. […] When target molecules, such as dopamine or serotonin, bind to the molecular switches, the molecular switches may emit fluorescence light. The fluorescence light may have a second wavelength that is longer than the first wavelength of the excitation light. The emitted fluorescence light may be coupled back into the optical waveguide 2462 through the second end 2466 and be propagated through the optical waveguide 2462 to be emitted from the first end 2464.
The fluorescence light emitted from the […] of the optical waveguide 2462 may be collimated by the lens 2440 and incident on the optical beam splitter 2420. The optical beam splitter 2420 is configured to transmit the fluorescence light. In some embodiments, the optical beam splitter 2420 may be a dichroic beam splitter configured to have a high reflectance value for the first wavelength of the excitation light, and a high transmittance value for the second wavelength of the fluorescence light. […]

serotonin aptamers [2] = experiment: specificity test of the aptamers: MDMA spiked in control sample in the absence of brain slice (rig bath); format: binding; details: excess of MDMA (30 μM), no brain slice, oxygenated aCSF 37° C., 3 ml/min
Experimental: The stability of the fluorescence signal over time is characterized in a bath system (rig) under the appropriate conditions favorable for live brain slice measurements. This includes keeping the temperature of the bath at 37° C., with oxygenated artificial CSF (aCSF) flown in the chamber at a rate of 3 ml/min. A stable fluorescence signal (counts) was observed over tens of minutes under continuous laser excitation, which confirmed the robustness of the aptamers, fluorophores and the surface under such conditions. To test the specificity of the aptamers, an excess of MDMA (30 μM) was spiked in a control sample in the absence of brain slice.

[3] = system: live brain slices (nucleus accumbens); experiment: optical fiber sensor in live brain slices, endogenous release of serotonin upon MDMA stimulation; format: cell-based, mouse; parameters: dose or concentration left out as unconfirmed; details: following infusion of MDMA for 10 minutes; 532 nm excitation; NAc
Excerpt: According to some embodiments, to measure endogenous release of DA and 5-HT upon drug (MDMA) stimulation with the optical biosensor in live brain slices, a rig system and a brain slice recording chamber are installed in a lab with all the necessary components, including: a gravity-perfusion system alimented by peristatic pump, temperature controller, oxygen lines, microscope, camera and micro-stage. It was noted that black curtains covering the entire rig system were necessary to minimize the background and fluctuations from room-light.
Initially, the optical fiber was successfully inserted in a brain slice without compromising or breaking the micron-size tip of the optical fiber. However, due to mechanical contact, the fluorescence signal was mostly lost during the insertion process. Subsequently, the fiber was protected by a capillary tube from mechanical breakage during the transfer processes onto the rig holder and bath. […]
After confirming the sensitivity, robustness, and specificity of the aptamer sensor in the rig system, test measurements were performed with live brain slices. […] After approximately 10 minutes of baseline measurements (aCSF) to determine the stability of the fluorescence signal in the brain environment over time and estimate the photobleaching rate, drug infusion at […] was started for 10 minutes. […]

| Compound | sensor responses (fluorescence signal) (serotonin aptamers [1]) | change in the fluorescence signal (serotonin aptamers [2]) | fluorescence intensity, red channel (Cy5) and green channel (Cy3) [3] |
| --- | --- | --- | --- |
| O=C(O)Cc1c[nH]c2ccc(O)cc12 [5-hydroxyindoleacetic acid] | negligible |  |  |
| CNC(C)Cc1ccc2c(c1)OCO2 (centres unmarked) [MDMA] |  | Minimal change | clear drop in the fluorescence intensity |
| NCCc1ccc(O)c(O)c1 [dopamine] | negligible |  |  |
| CNC[C@H](O)c1ccc(O)c(O)c1 [epinephrine] | negligible |  |  |
